Here are results for 16 compounds from US20080234300A1, “Pyrimido[5,4-c] Quinoline-2, 4-Diamine Derivatives and Methods of Use Thereof” (WYETH, priority 2007, published 2008).

This test addresses T1, PDK-1 (Homo sapiens, UniProt O15530).
T1 sequence (O15530 1-556): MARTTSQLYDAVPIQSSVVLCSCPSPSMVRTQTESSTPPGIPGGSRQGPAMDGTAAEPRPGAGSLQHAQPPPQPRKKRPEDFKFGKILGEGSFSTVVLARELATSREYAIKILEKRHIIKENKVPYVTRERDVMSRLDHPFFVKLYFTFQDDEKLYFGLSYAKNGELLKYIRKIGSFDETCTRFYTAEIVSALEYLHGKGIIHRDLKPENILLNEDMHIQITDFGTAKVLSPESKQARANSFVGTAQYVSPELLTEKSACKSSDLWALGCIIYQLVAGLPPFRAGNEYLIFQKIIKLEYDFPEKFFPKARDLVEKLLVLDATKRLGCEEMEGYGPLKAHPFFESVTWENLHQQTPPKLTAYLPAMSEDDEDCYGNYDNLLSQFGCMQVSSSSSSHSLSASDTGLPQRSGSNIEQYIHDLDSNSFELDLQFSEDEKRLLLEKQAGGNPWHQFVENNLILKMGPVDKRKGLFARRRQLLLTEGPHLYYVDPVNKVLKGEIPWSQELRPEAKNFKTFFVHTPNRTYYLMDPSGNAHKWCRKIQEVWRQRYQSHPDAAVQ
Description: PDK-1 kinase inhibition ELISA assay (phosphorylation of His6-tagged SGK1 S422D by PDK-1). The format is biochemical. The settings on record: in vitro ELISA; phosphorylation of His6-tagged SGK1 (S422D) on Thr256 by PDK-1, 20 minutes, chemiluminescent detection. On the procedure:
The ability of an illustrative Pyrimido[5,4-c]quinoline-2,4-diamine Derivative to inhibit PDK-1 in vitro can be determined using an ELISA assay as described in Kobayashi et al., Biochem. J. 339:319-328 (1999) and Park et al., EMBO J. 18:3024-3033 (1999).
In an in vitro assay, His6-tagged SGK1 with S422D mutation (formerly Upstate Biotech, now Millipore) on Thr256 is allowed to be phosphorylated by PDK-1 in the presence of a Pyrimido[5,4-c]quinoline-2,4-diamine Derivative. After 20 minutes, the reaction is quenched via the addition of urea. The His6-tagged SGK1 is then bound to 96 well Ni-NTA HisSorb plates (Quiagen, Inc.) and phosphorylated SGK1 is quantitatively detected using rabbit derived anti-phospho SGK antibody (Cell Signaling Technology) as the primary antibody and horseradish peroxidase (HRP)— coupled anti-rabbit antibody (formerly Zymed, now Invitrogen) as the secondary antibody. HRP is then detected using a chemiluminescent substrate (Pierce Chemical Co.).
IC50 values of illustrative Pyrimido[5,4-c]quinoline-2,4-diamine Derivatives, shown in Table 4, are calculated using LSW Data Analysis package add-in for Excel (Microsoft).

The structures appear in SMILES notation.

Turning to `COCCOc1cc2ncc3c(N)nc(N4CCC(O)C4)nc3c2cc1OC` (stereo not shown) [Compound Ia-6, 1-[4-Amino-9-methoxy-8-(2-methoxyethoxy)pyrimido[5,4-c]quinolin-2-yl]pyrrolidin-3-ol], the IC50 came out at 36.3 µM.

`COCCOc1cc2ncc3c(N)nc(N4CCC[C@H]4COC)nc3c2cc1OC` [Ia-16, 9-methoxy-8-(2-methoxyethoxy)-2-[(2S)-2-(methoxymethyl)pyrrolidin-1-yl]pyrimido[5,4-c]quinolin-4-amine] gave an IC50 of 39.6 µM. To `CCNc1nc(N)c2cnc3cc(OCCOC)c(OC)cc3c2n1` [Ia-9, N2-ethyl-9-methoxy-8-(2-methoxyethoxy)pyrimido[5,4-c]quinoline-2,4-diamine] belongs > 200 µM; to `COCCOc1cc2ncc3c(N)nc(NC4CCCCC4)nc3c2cc1OC` [Ia-17, N2-cyclohexyl-9-methoxy-8-(2-methoxyethoxy)pyrimido[5,4-c]quinoline-2,4-diamine], 5.43 µM; to `COCCOc1cc2ncc3c(N)nc(N4CCC(=O)CC4)nc3c2cc1OC` [Ia-13, 1-[4-amino-9-methoxy-8-(2-methoxyethoxy)pyrimido[5,4-c]quinolin-2-yl]piperidin-4-one], > 200 µM. For `CCOc1cc2ncc3c(N)nc(N4CCOCC4)nc3c2cc1OCC` [Ia-4, 8,9-diethoxy-2-morpholin-4-ylpyrimido[5,4-c]quinolin-4-amine] the value was 55.7 µM; for `COCCOc1cc2ncc3c(N)nc(N4CCN(c5ccccc5)CC4)nc3c2cc1OC` [Ia-18, 9-methoxy-8-(2-methoxyethoxy)-2-(4-phenylpiperazin-1-yl)pyrimido[5,4-c]quinolin-4-amine], 111 µM; for `COCCOc1cc2ncc3c(N)nc(N(C)C)nc3c2cc1OC` [Ia-8, 9-methoxy-8-(2-methoxyethoxy)-N2,N2-dimethylpyrimido[5,4-c]quinoline-2,4-diamine], 9.33 µM.

As for `COCCOc1cc2ncc3c(N)nc(N4CCN(C)CC4)nc3c2cc1OC` [Ia-7, 9-methoxy-8-(2-methoxyethoxy)-2-(4-methylpiperazin-1-yl)pyrimido[5,4-c]quinolin-4-amine], the IC50 is > 200 µM. With `CCOc1cc2ncc3c(N)nc(N)nc3c2cc1OCC` [Ia-2, 8,9-diethoxypyrimido[5,4-c]quinoline-2,4-diamine], 18 µM corresponded to half-maximal inhibition (IC50). For `COc1cc2ncc3c(N)nc(N)nc3c2cc1OC` [Ia-1, 8,9-dimethoxypyrimido[5,4-c]quinoline-2,4-diamine] the value was 12.2 µM; for `COCCOc1cc2ncc3c(N)nc(N4CCOCC4)nc3c2cc1OC` [Ia-5, 9-methoxy-8-(2-methoxyethoxy)-2-morpholin-4-ylpyrimido[5,4-c]quinolin-4-amine], > 200 µM; for `COCCOc1cc2ncc3c(N)nc(N4CCOc5ccccc5C4)nc3c2cc1OC` [Ia-20, 2-(2,3-dihydro-1,4-benzoxazepin-4(5H)-yl)-9-methoxy-8-(2-methoxyethoxy)pyrimido[5,4-c]quinolin-4-amine], 83.1 µM. To `COCCOc1cc2ncc3c(N)nc(N4CCCC4)nc3c2cc1OC` [Ia-14, 9-methoxy-8-(2-methoxyethoxy)-2-pyrrolidin-1-ylpyrimido[5,4-c]quinolin-4-amine] belongs 6.55 µM; to `COCCOc1cc2ncc3c(N)nc(N4CCC5(CC4)OCCO5)nc3c2cc1OC` [Ia-10, 2-(1,4-dioxa-8-azaspiro[4.5]dec-8-yl)-9-methoxy-8-(2-methoxyethoxy)pyrimido[5,4-c]quinolin-4-amine], 50.5 µM. To `COCCOc1cc2ncc3c(N)nc(N4CCC[C@@H]4COC)nc3c2cc1OC` [Ia-15, 9-methoxy-8-(2-methoxyethoxy)-2-[(2R)-2-(methoxymethyl)pyrrolidin-1-yl]pyrimido[5,4-c]quinolin-4-amine] belongs 2.15 µM.
